Target: T1, HDAC6F H611A mutant (Homo sapiens, UniProt Q9UBN7, H611A)
T1 construct: made in house; host or cells: TAg Jurkat cells, transient transfection, anti-FLAG M2 immunoprecipitation
Assay: in vitro deacetylase assay with [3H]-histones, HDAC6F H611A mutant
Format: biochemical
Settings: [3H]-labeled histones, n=3
Method: FLAG-tagged HDAC pBJ5 constructs were transiently transfected by electroporation with 5 μg DNA for expression of recombinant proteins (C. M. Grozinger, C. A. Hassig and S. L. Schreiber, Proc. Natl. Acad. Sci. USA, 27, 4868 (1999); and C. A. Hassig et al., Proc. Natl. Acad. Sci. USA 95, 3519 (1998)]. Cells were mock transfected without DNA or with a non-FLAG-tagged pCMV-LacZ construct as a negative control. Forty-eight hours after transfection recombinant proteins were immunoprecipitated using anti-FLAG M2 agarose affinity gel beads as described [C. A. Hassig et al., Proc. Natl. Acad. Sci. USA 95, 3519 (1998)]. Western blotting using anti-acetylated α-tubulin (1:1000) anti-tubulin (1:1000), and anti-acetylated (K9, K14) histone H3 (1:1000) antibodies was performed using standard methods (K. M. Koeller et al., Chemistry & Biology, 10 (5) (2003) pp. 397-410). […]
[^3H]Acetate-incorporated histones were isolated from butyrate-treated HeLa cells as described [J. Taunton, C. […] Immunoprecipitates were incubated with acetylated histones and HDAC activity determined by scintillation counting as described [J. Taunton, C. […] After centrifugation, the supernatant (diluted to 0.4 μg tubulin) and α-FLAG M2 agarose affinity gel beads were analyzed by western blotting with an anti-FLAG M2 antibody (1:1750) to ensure equal protein levels.

T1 sequence (Q9UBN7 whole entry H611A): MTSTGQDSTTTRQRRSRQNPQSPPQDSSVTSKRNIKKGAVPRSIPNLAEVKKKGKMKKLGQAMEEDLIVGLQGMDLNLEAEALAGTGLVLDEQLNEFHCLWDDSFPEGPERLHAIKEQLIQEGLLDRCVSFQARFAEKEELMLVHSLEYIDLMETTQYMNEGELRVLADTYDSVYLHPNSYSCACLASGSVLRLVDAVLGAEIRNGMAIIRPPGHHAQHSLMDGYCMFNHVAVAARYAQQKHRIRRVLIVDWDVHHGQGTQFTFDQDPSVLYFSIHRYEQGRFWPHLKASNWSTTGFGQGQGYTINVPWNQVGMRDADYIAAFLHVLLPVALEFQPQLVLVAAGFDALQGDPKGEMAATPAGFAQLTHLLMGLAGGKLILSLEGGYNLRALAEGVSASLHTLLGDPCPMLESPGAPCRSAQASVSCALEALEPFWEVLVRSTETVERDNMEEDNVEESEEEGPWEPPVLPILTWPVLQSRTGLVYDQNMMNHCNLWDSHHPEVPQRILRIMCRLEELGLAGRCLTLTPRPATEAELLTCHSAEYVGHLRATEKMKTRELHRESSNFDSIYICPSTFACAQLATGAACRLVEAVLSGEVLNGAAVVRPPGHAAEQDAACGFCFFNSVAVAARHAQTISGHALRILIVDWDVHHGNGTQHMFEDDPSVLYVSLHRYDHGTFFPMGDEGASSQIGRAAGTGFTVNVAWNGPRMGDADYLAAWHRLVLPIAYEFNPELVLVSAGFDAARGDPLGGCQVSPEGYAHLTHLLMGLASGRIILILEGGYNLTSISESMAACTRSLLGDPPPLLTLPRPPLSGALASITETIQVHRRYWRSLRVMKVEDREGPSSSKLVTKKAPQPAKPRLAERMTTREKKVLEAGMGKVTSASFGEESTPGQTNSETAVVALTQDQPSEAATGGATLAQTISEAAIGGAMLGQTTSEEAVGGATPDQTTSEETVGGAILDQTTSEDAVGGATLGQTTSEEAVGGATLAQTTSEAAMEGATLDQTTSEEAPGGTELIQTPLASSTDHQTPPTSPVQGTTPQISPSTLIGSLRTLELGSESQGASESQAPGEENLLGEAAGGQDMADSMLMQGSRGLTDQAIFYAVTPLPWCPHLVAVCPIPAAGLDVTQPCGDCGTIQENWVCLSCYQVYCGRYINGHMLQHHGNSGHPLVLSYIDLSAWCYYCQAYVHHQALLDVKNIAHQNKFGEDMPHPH

SMILES	inhibition of HDAC activity of HDAC6F H611A mutant
CC(/C=C/C(=O)NO)=C\[C@@H](C)C(=O)c1ccc(N(C)C)cc1 [TSA, trichostatin A, reference compound]	not inhibited by either TSA or tubacin
O=C(CCCCCCC(=O)Nc1ccc([C@@H]2OC(c3ccc(CO)cc3)C[C@H](CSc3nc(-c4ccccc4)c(-c4ccccc4)o3)O2)cc1)NO (some centres unmarked) [tubacin]	not inhibited by either TSA or tubacin

From patent US8178579B2, “Dioxanes and uses thereof” (President and Fellows of Harvard College, priority 2001, dated 2012)
